In US4147778A, “Antibiotic baumycin complex and components thereof” (Zaidan Hojin Biseibutsu Kagaku Kenkyu Kai, priority 1976, dated 1979):
Values after ≈ are worked out from the molar mass of the structure shown. “Also recorded” adds a separate entry of the source.

Assays:
B. subtilis ATCC 6633 = experiment: Minimum inhibitory concentration, broth dilution method; assay type: cell-based; conditions: B. subtilis ATCC 6633
Excerpt: (§1) The minimum inhibitory concentration of the present antibiotics as determined by the broth dilution method are shown in Table 1.

Staph. aureus Smith = experiment: as above; assay type: cell-based
Excerpt: as §1

[1] = tested on: B. megarterium NRRL B-938; experiment: as above; assay type: cell-based
Excerpt: as §1

Sarcina lutea ATCC 9341 = experiment: as above; assay type: cell-based; conditions: Sarcina lutea ATCC 9341
Excerpt: as §1

Candida tropicalis = experiment: as above; assay type: cell-based
Excerpt: as §1

[2] = tested on: Ps. fluorescens NIHJB-254; experiment: as above; assay type: cell-based
Excerpt: as §1

Micrococcus flavs = experiment: as above; assay type: cell-based
Excerpt: as §1

[3] = tested on: Mycobacterium smegmatis ATCC 607; experiment: as above; assay type: cell-based
Excerpt: as §1

[4] = tested on: Candida albicans IAM 4905; experiment: as above; assay type: cell-based
Excerpt: as §1

Staph. aureus FDA209P = experiment: as above; assay type: cell-based
Excerpt: as §1

Coryne. bovis 1810 = experiment: as above; assay type: cell-based
Excerpt: as §1

Proteus morganii = experiment: as above; assay type: cell-based
Excerpt: as §1

B. cereus ATCC 9634 = experiment: as above; assay type: cell-based
Excerpt: as §1

[5] = Acute toxicity, LD50 upon intraperitoneal injection; assay type: in vivo
Excerpt: The LD50 values upon intraperitoneal injection of the
antibiotics of the present invention are shown in the […]

[6] = Toxicity in experimental animal tests; assay type: in vivo
animal tumors = experiment: Inhibition of growth of animal tumors; assay type: in vivo; conditions: experimental animal tests
Excerpt: (§2) For example, BDF1 mice were inoculated intraperitoneally with 1 × 10^6 L-1210 cells/mouse and 24 hrs. after inoculation the drug was intraperitoneally injected once daily for 10 days consecutively. On day 30, the % of prolongation of the survival time to control was as follows: […]

mouse L-1210 leukemia = experiment: Prolongation of survival time of mice inoculated with L-1210 leukemia; assay type: in vivo, BDF1 mice; conditions: for Prolongation of the survival time T/C: BDF1 mice, 1 × 10^6 L-1210 cells i.p., day 30; for Inhibitory effect on mouse L-1210 leukemia: in words
Excerpt: as §2

gram-positive bacteria = experiment: Antimicrobial activity against gram-positive bacteria; assay type: cell-based
Excerpt: as §1

Solubility = assay type: physicochemical
[7] = 0.06 mg./kg./day i.p. once daily for 10 days
[8] = in acidic water, DMSO, methylcellosolve, methanol, ethanol, n-propanol, n-butanol, ethyl acetate, butyl acetate, acetone, methyl ethyl ketone, methylene chloride and chloroform
[9] = in n-hexane, cyclohexane and petroleum ether

SMILES: COc1cccc2c1C(=O)c1c(O)c3c(c(O)c1C2=O)CC(O)(C(C)=O)CC3OC1CC(N)C(OC(CC(C)O)OC(C)CO)C(C)O1 (stereo not shown) [BM-A1]
- Minimum inhibitory concentration (B. subtilis ATCC 6633): 0.78 mg/L (≈ 1.16 µM)
- MIC (Staph. aureus Smith; Staphylococcus aureus): 0.78 mg/L (≈ 1.16 µM)
- Minimum inhibitory concentration [1]: 1.56 mg/L (≈ 2.32 µM)
- Minimum inhibitory concentration (Sarcina lutea ATCC 9341): 0.78 mg/L (≈ 1.16 µM)
- MIC (Candida tropicalis): 100 mg/L (≈ 148 µM)
- MIC ([2]; Pseudomonas fluorescens, NIHJB254, Ps. fluorescens NIHJB-254): > 100 mg/L
- MIC (Micrococcus flavs; Micrococcus, read-out: Minimum inhibitory concentration, Micrococcus flavs): 0.78 mg/L (≈ 1.16 µM)
- MIC ([3]; Mycolicibacterium smegmatis, ATCC607, Mycobacterium smegmatis ATCC 607): 6.25 mg/L (≈ 9.28 µM)
- MIC ([4]; IAM4905, Candida albicans IAM 4905): 100 mg/L (≈ 148 µM)
- MIC (Staph. aureus FDA209P; Staphylococcus aureus, FDA209P): 1.56 mg/L (≈ 2.32 µM)
- Minimum inhibitory concentration (Coryne. bovis 1810): 1.56 mg/L (≈ 2.32 µM)
- MIC (Proteus morganii; Morganella morganii): > 100 mg/L
- MIC (B. cereus ATCC 9634; Bacillus cereus, ATCC9634, B. cereus ATCC 9634): 1.56 mg/L (≈ 2.32 µM)
- LD50 [5]: 1.5 to 2.5 mg/kg
- Toxicity [6]: low toxicity
- Inhibition of growth of animal tumors / antitumor activity (animal tumors; listed as Baumycin A1): inhibit the growth of various animal tumors; also recorded: marked antitumor activity; also recorded: marked inhibitory action against animal malignant tumors, especially ascitic and solid tumors
- Prolongation of the survival time T/C (mouse L-1210 leukemia; 0.004 mg./kg./day i.p. once daily for 10 days): 131%
- Prolongation of the survival time T/C (mouse L-1210 leukemia; 0.008 mg./kg./day i.p. once daily for 10 days): 131%
- Prolongation of the survival time T/C (mouse L-1210 leukemia; 0.015 mg./kg./day i.p. once daily for 10 days): 155%
- Prolongation of the survival time T/C (mouse L-1210 leukemia; 0.03 mg./kg./day i.p. once daily for 10 days): 187%
- Prolongation of the survival time T/C (mouse L-1210 leukemia; [7]): > 300%
- Inhibitory effect on mouse L-1210 leukemia (mouse L-1210 leukemia): marked inhibitory effects
- Antimicrobial activity (gram-positive bacteria; listed as Baumycin A1): inhibit the growth of gram-positive bacteria; also recorded: possess antimicrobial activity, especially against gram-positive bacteria
- Solubility (Solubility; [8]): Soluble
- Solubility (Solubility; [9]): Insoluble
- Solubility (Solubility; in water): Insoluble

SMILES: COc1cccc2c1C(=O)c1c(O)c3c(c(O)c1C2=O)CC(O)(C(C)=O)CC3OC1CC(N)C(OC(CC(C)O)OC(C)CO)C(C)O1 (stereo not shown) [BM-A2]
- Minimum inhibitory concentration (B. subtilis ATCC 6633): 3.12 mg/L (≈ 4.63 µM)
- Minimum inhibitory concentration (Staph. aureus Smith): 1.56 mg/L (≈ 2.32 µM)
- Minimum inhibitory concentration [1]: 6.25 mg/L (≈ 9.28 µM)
- Minimum inhibitory concentration (Sarcina lutea ATCC 9341): 3.12 mg/L (≈ 4.63 µM)
- Minimum inhibitory concentration (Candida tropicalis): 100 mg/L (≈ 148 µM)
- Minimum inhibitory concentration ([2]; Ps. fluorescens NIHJB-254): 100 mg/L (≈ 148 µM)
- Minimum inhibitory concentration (Micrococcus flavs; Micrococcus flavs): 1.56 mg/L (≈ 2.32 µM)
- Minimum inhibitory concentration ([3]; Mycobacterium smegmatis ATCC 607): 12.5 mg/L (≈ 18.6 µM)
- Minimum inhibitory concentration ([4]; Candida albicans IAM 4905): 100 mg/L (≈ 148 µM)
- Minimum inhibitory concentration (Staph. aureus FDA209P): 3.12 mg/L (≈ 4.63 µM)
- Minimum inhibitory concentration (Coryne. bovis 1810): 6.25 mg/L (≈ 9.28 µM)
- Minimum inhibitory concentration (Proteus morganii): > 100 mg/L
- Minimum inhibitory concentration (B. cereus ATCC 9634; B. cereus ATCC 9634): 3.12 mg/L (≈ 4.63 µM)
- LD50 [5]: 15 to 20 mg/kg
- Toxicity [6]: low toxicity
- Inhibition of growth of animal tumors / antitumor activity (animal tumors; listed as Baumycin A2): inhibit the growth of various animal tumors; also recorded: marked antitumor activity; also recorded: marked inhibitory action against animal malignant tumors, especially ascitic and solid tumors
- Prolongation of the survival time T/C (mouse L-1210 leukemia; [7]): 141%
- Prolongation of the survival time T/C (mouse L-1210 leukemia; 0.125 mg./kg./day i.p. once daily for 10 days): 151%
- Prolongation of the survival time T/C (mouse L-1210 leukemia; 0.25 mg./kg./day i.p. once daily for 10 days): 163%
- Prolongation of the survival time T/C (mouse L-1210 leukemia; 0.5 mg./kg./day i.p. once daily for 10 days): 173%
- Prolongation of the survival time T/C (mouse L-1210 leukemia; 1 mg./kg./day i.p. once daily for 10 days): 167%
- Inhibitory effect on mouse L-1210 leukemia (mouse L-1210 leukemia): marked inhibitory effects
- Antimicrobial activity (gram-positive bacteria; listed as Baumycin A2): inhibit the growth of gram-positive bacteria; also recorded: possess antimicrobial activity, especially against gram-positive bacteria
- Solubility (Solubility; [8]): Soluble
- Solubility (Solubility; [9]): Insoluble
- Solubility (Solubility; in water): Insoluble
